Measurements as given in patent publication US6544541B1, “Devices and compounds for treating arterial restenosis” (Cardiovascular Solutions, Inc., priority 1999, dated 2003).

Legend:
[1] = system: porcine coronary artery smooth muscle cells
c-fos = c-fos gene expression by RT-PCR in human smooth muscle cells; type: cell-based; settings: 25 μM MIBG pretreatment (10 minutes), then IGF-1 stimulated 15 minutes
[2] = system: porcine coronary arteries; assay: coronary artery organ culture after balloon angioplasty (neointimal index); settings: 25 μM in culture media over 14 days; FIG. 10
Source text: Although smooth muscle cell cultures can be used to determine the ability of a compound to inhibit proliferation, these cells are not good indicators of a compound's ability to prevent restenosis. This statement stems from the fact that several processes, including cell migration, proliferation and synthesis of ECM degrading enzymes, must be coordinately activated in order for restenosis to occur. A novel organ culture system has therefore been developed in order to test the effectiveness of MIBG and other compounds at preventing restenosis (Wilson et al, 1999, Cardiac Res 42: 761-772). In brief, hearts are transported from the abattoir to the laboratory on ice. The left descending coronary artery is exposed and a balloon catheter is inserted past the first bifurcation. The balloon is inflated, and after 1 minute is deflated and withdrawn. The damaged region (approximately 20 mm in length) is excised, cut into 4 pieces of 5 mm and each piece is placed into an individual well of a culture dish. These segments can be maintained in media containing 20% serum for up to 21 days. Upon harvest of the tissue, typically after 14 days, the vessel segments are placed into resin for histological analysis. Sections are prepared from vessel segments after removal of the first 1.5 mm. […] This file is imported into SigmaScan™, and staining in the areas of the intimal and medial layers quantified. […]

L1210 = settings: non-neuronal cell line L1210; cited from earlier work
[3] = system: Friend erythroleukemia cells; assay: Friend cell differentiation; type: cell-based
Source text: It is of note however that MIBG acts at a point in the differentiation pathway that is distinct from 3-aminobenzamide.

smooth muscle cells [4] = assay: Boyden chamber smooth muscle cell migration in response to Angiotensin II; type: cell-based; settings: 20 μM; 10 μM Angiotensin II in lower compartment; FIG. 17
Description: Specifically, smooth muscle cells were seeded into the upper chamber of a Boyden chamber, which consists of two compartments that are separated by a permeable membrane. […] Specifically, migration to the lower compartment was determined by counting cells on the underside of the membrane. Data are presented as means ± standard error for six independent determinations.

H4IIE cells = assay: lactate dehydrogenase (LDH) release toxicity assay; type: cell-based; settings: 96 hours; FIG. 5
Description: To address the issue of MIBG toxicity, lactate dehydrogenase (LDH) release was measured after incubation with MIBG or MIBA. Quiescent H4IIE cells were prepared in 96-well dishes and treated with various concentrations of either MIBG or MIBA for 96 hours. To quantify the release of LDH from the cells, which only occurs if the cells are damaged or killed by the treatment, 100 μl of culture medium was transferred to a fresh dish. To this was added 100 μl of dye/catalyst mixture (Boehringer Mannheim cytotoxicity detection kitTM), and the samples were subsequently incubated for 30 minutes at 37° C. Absorbance of the solution was monitored at 490 nm. The colour intensity indicates the relative LDH content in the test samples. […] As a consequence, it is speculated that changes in LDH release may be coupled to non-toxic and reversible alterations in mitochondrial metabolism or membrane integrity as a result of MIBG treatment.

H4IIE hepatoma cells [5] = assay: flow cytometry, bromodeoxyuridine incorporation in proliferating cells; type: cell-based; settings: 25 μM MIBG, 48 hours; FIG. 4
Description: Additional verification that MIBG blocked cell proliferation was obtained using flow cytometry analysis. Proliferating H4IIE cells (<40% confluent) were incubated for 48 hours in the presence or absence (untreated control or containing MIBA) of 25 μM MIBG. The cells were pulse labeled with bromodeoxyuridine (BrdU) 2 hours before harvest to label replicating DNA. Cells were released by trypsinization, collected by centrifugation and permeabilized with Triton X-100 (1%). Replicated DNA was labeled with an anti-BrdU antibody conjugated to FITC (fluorescein isothiocyanate), while total DNA was labeled with propidium iodide. The FITC and propidium iodide labels were detected at 514 nm and 600 nm, respectively, with a Coulter flow cytometer™ (excitation wavelength 488 nm), and number of cells containing these fluors were quantified. The data were plotted as cells with propidium iodide versus cells with BrdU. […] To summarize, the results described above indicate that MIBG is a potent inhibitor of cell proliferation. Furthermore, the cellular process affected by MIBG is active throughout the cell cycle. This conclusion is based on the fact that there is no accumulation of cells at a specific phase of the cell cycle. In addition, it is of note that there is no apparent decrease in cell number or an increase in smaller cells, both characteristics of cell death.

smooth muscle cells [6] = settings: cited from earlier work
H4IIE hepatoma cells [7] = assay: MTT staining of viable cells (cell number); type: cell-based
Description: In this assay, H4IIE cells are plated on 96-well dishes, and incubated in standard growth medium. Separate plates were prepared for comparing the effects of MIBG after 2 or 4 days. At those time points, 200 μl of 5 mg/ml MTT was added to each well, and the cells were incubated an additional 4 hours. The medium was removed and cells were treated with acidified isopropanol and the absorbance read at 570 nm. Increased absorbance is indicative of increases in cell number.

With meta-iodobenzylguanidine [MIBG] the “levels at which cytotoxic” value [1] was no less than 200 µM, the “decrease of basal DNA synthesis” value ([1]; MIBG alone, highest concentration tested, FIG. 8) was ≤ 40 % of the control and the “concentrations inhibiting stimulation of DNA and RNA synthesis” value ([1]; stimulation by angiotensin II and serum, FIGS. 6 and 7) was 20 to 50 µM. For the same substance, the “c-fos mRNA levels” value (c-fos) was “equivalent to or below basal”, the neointimal index [2] was “effectively reduces the neointimal index to control values” and the “concentration in cells relative to the surrounding medium” value (L1210) was 15 times. For the same substance, the “effect on Friend cell differentiation” value [3] was “inhibits Friend cell differentiation following commitment”, the “smooth muscle cell migration” value (smooth muscle cells [4]) was “inhibited smooth muscle cell migration” and the “concentration at which increased LDH release is detectable” value (H4IIE cells) was 50 µM. The “bromodeoxyuridine incorporation (DNA synthesis)” value (H4IIE hepatoma cells [5]) was “no bromodeoxyuridine incorporation is observed”, the “DNA synthesis (thymidine uptake)” value (smooth muscle cells [6]) was “had no effect on DNA synthesis” and the cell number (smooth muscle cells [6]) was “prevents an increase in cell number”. The “production of collagen type I” value (smooth muscle cells [6]) was “decreased the production of collagen type I”, the “effect on cell number” value (H4IIE hepatoma cells [7]; 20 μM, 2 or 4 days, FIG. 3) was “effective in preventing increases in cell number” and the MTT staining (H4IIE hepatoma cells [7]; 200 μM, up to 96 hours) was 60 % of control values.
